≈ marks a conversion by molar mass, not a printed value. Where two headings read alike, the source gives them in different places.
Columns and labels:
[1] = test system: Klebsiella pneumoniae (ATCC 10031); assay: antibacterial activity, minimum growth inhibitory concentration method (MIC method); assay type: cell-based; conditions: ATCC10031, HIA medium, 37° C., 18 hours
Protocol: (§1) The antibacterial activity was tested by the minimum growth inhibitory concentration method (MIC method).
(§2) A commercially available heart infusion agar medium (to be abbreviated HIA medium) was used as an assay medium, and a commercially available trypto-soy bouillon medium (to be abbreviated TSB) was used as a medium for the growth of test bacterial strains.
(§3) The test compound was diluted with the melted HIA medium to 100 μg/ml as a maximum concentration, and then serially diluted doubly. The dilutions were poured into sterilized Petri dishes respectively and allowed to cool and solidify to prepare plates containing the test compound.
(§4) As a control, carbenicillin sodium (CB-PC) was used.
(§5) The test strain was cultivated in the TBS medium at 37° C. for 18 hours, and the culture broth was diluted with a freshly prepared TBS medium to 50 to 500 times, and one platinum loopful of the dilution was inoculated in each of the plates containing the test compound. The plate was incubated at 37° C. for 18 hours. The state of growth of the strain on the plate was observed, and the minimum growth inhibitory concentration (MIC) of the compound was determined.

Proteus vulgaris (OX-19) = assay: as above; assay type: cell-based; conditions: HIA medium, 37° C., 18 hours
Protocol: as §1, §2, §3, §4, §5

[2] = test system: Staphylococcus aureus (FDA 209P); assay: as above; assay type: cell-based; conditions: FDA209P, read-out: Minimum growth inhibitory concentration (MIC)
Protocol: as §1, §2, §3, §4, §5

[3] = test system: Serratia marcescens (S-33); assay: as above; assay type: cell-based; conditions: HIA medium, 37° C., 18 hours
Protocol: as §1, §2, §3, §4, §5

[4] = test system: Salmonellaenteritidis (KB-21); assay: as above; assay type: cell-based; conditions: read-out: Minimum growth inhibitory concentration (MIC)
Protocol: as §1, §2, §3, §4, §5

[5] = test system: Pseudomonas aeruginosa (395); assay: as above; assay type: cell-based; conditions: HIA medium, 37° C., 18 hours
Protocol: as §1, §2, §3, §4, §5

[6] = test system: Enterobacter aerogenes (IFO-3320); assay: as above; assay type: cell-based; conditions: Klebsiella aerogenes, read-out: Minimum growth inhibitory concentration (MIC)
Protocol: as §1, §2, §3, §4, §5

[7] = test system: Staphylococcus aureus (Y-8); assay: as above; assay type: cell-based; conditions: HIA medium, 37° C., 18 hours
Protocol: as §1, §2, §3, §4, §5

[8] = test system: Pseudomonas aeruginosa (IFO-3901); assay: as above; assay type: cell-based; conditions: IFO3901, HIA medium, 37° C., 18 hours
Protocol: as §1, §2, §3, §4, §5

Shigella flexneri (K-A) = assay: as above; assay type: cell-based; conditions: HIA medium, 37° C., 18 hours
Protocol: as §1, §2, §3, §4, §5

Escherichia coli (K-12) = assay: as above; assay type: cell-based; conditions: HIA medium, 37° C., 18 hours
Protocol: as §1, §2, §3, §4, §5

Pseudomonas aeruginosa = conditions: in words, background literature; cited from earlier work
[9] = Salmonellaenteritidis (KB-21), HIA medium, 37° C., 18 hours
[10] = IFO3320, Enterobacter aerogenes (IFO-3320), HIA medium, 37° C., 18 hours

Work on `CC1(C)CC(=O)c2c([nH]cc(C(=O)N[C@@H](C(=O)N[C@@H]3C(=O)N4[C@@H]3SC(C)(C)[C@@H]4C(=O)O)c3ccccc3)c2=O)C1` [Synthesis Example 1, 6-[D-(-)-α-(7,7-dimethyl-4,5-dioxo-1,4,5,6,7,8-hexahydroquinoline-3-carboxamido)phenylacetamido]-penicillanic acid] yielded an MIC [1] of 12.5 µg/mL (≈ 22.1 µM), an MIC (Proteus vulgaris (OX-19)) of 1.56 µg/mL (≈ 2.75 µM) and an MIC ([2]; Staphylococcus aureus, 18 h) of 1.56 µg/mL (≈ 2.75 µM). The MIC [3] was 3.13 µg/mL (≈ 5.52 µM), the MIC [4, 9] was 0.39 µg/mL (≈ 0.688 µM) and the MIC [5] was 1.56 µg/mL (≈ 2.75 µM). It also gave an MIC [6, 10] of 0.78 µg/mL (≈ 1.38 µM), an MIC [7] of 6.25 µg/mL (≈ 11 µM) and an MIC [8] of 6.25 µg/mL (≈ 11 µM). It also gave an MIC (Shigella flexneri (K-A)) of 0.39 µg/mL (≈ 0.688 µM) and an MIC (Escherichia coli (K-12)) of 0.78 µg/mL (≈ 1.38 µM).

For `CCn1cc(C(=O)N[C@@H](C(=O)N[C@@H]2C(=O)N3[C@@H]2SC(C)(C)[C@@H]3C(=O)O)c2ccccc2)c(=O)c2c1CCCC2=O` [Synthesis Example 2, 6-[D-(-)-α-(1-ethyl-4,5-dioxo-1,4,5,6,7,8-hexahydroquinoline-3-carboxamodo)phenylacetamido]-penicillanic acid], the MIC [1] was 25 µg/mL (≈ 44.1 µM), the MIC (Proteus vulgaris (OX-19)) was 3.13 µg/mL (≈ 5.52 µM) and the MIC ([2]; Staphylococcus aureus (FDA 209P), HIA medium, 37° C., 18 hours) was 1.56 µg/mL (≈ 2.75 µM). For the same compound, the MIC [3] was 3.13 µg/mL (≈ 5.52 µM), the MIC [4, 9] was 0.78 µg/mL (≈ 1.38 µM) and the MIC [5] was 3.13 µg/mL (≈ 5.52 µM). The MIC [6, 10] was 1.56 µg/mL (≈ 2.75 µM), the MIC [7] was 6.25 µg/mL (≈ 11 µM) and the MIC [8] was 6.25 µg/mL (≈ 11 µM). The MIC (Shigella flexneri (K-A)) was 0.78 µg/mL (≈ 1.38 µM) and the MIC (Escherichia coli (K-12)) was 3.13 µg/mL (≈ 5.52 µM).

In the case of `CC1(C)S[C@@H]2[C@H](NC(=O)C(C(=O)O)c3ccccc3)C(=O)N2[C@H]1C(=O)O` (stereo partly drawn) [CB--PC, disodium-α-carboxybenzyl penicillin, reference compound], the MIC [1] is reported as > 100 µg/mL, the MIC (Proteus vulgaris (OX-19)) is reported as 3.13 µg/mL and the MIC ([2]; Staphylococcus aureus, 18 h) is reported as 1.56 µg/mL. The MIC [3] was 3.13 µg/mL, the MIC ([4]; 18 h) was 1.56 µg/mL and the MIC [5] was 25 µg/mL. For the same compound, the MIC ([6]; IFO3320, 18 h) was 1.56 µg/mL, the MIC [7] was 6.25 µg/mL and the MIC [8] was 100 µg/mL. The MIC (Shigella flexneri (K-A)) was 1.56 µg/mL, the MIC (Escherichia coli (K-12)) was 6.25 µg/mL and the “activity on Pseudomonas aeruginosa” value (Pseudomonas aeruginosa) was “low activity”. The “effect on Pseudomonas aeruginosa-induced infections of difficultly-curable nature” value (Pseudomonas aeruginosa) was “ineffective”.

Reference: patent US4263302A, “Quinolinecarboxylic acid substituted penicillins and pharmaceutical compositions containing the same” (Mitsui Toatsu Chemicals, Incorporated, priority 1978, dated 1981)
